The test has as its system Sprague Dawley male rats. Kind of test: Hypolipidemic activity in Sprague Dawley rats, oral dosing (serum cholesterol and triglyceride). It counts as in vivo. The method, then: N-n-Octadecyl-N,N-dimethylamine borane was suspended in an aqueous 1% carboxymethylcellulose solution, homogenized, and administered to CF1 male mice (~25 g.) intraperitoneally for 16 days or Sprague Dawley male rats (~350 g.) orally by an intubation needle for 14 days. On days 9 and 14 or 16, blood was obtained by tail vein bleeding and the serum separated by centrifugation for 3 minutes. The serum cholesterol levels were determined by a modification of the Liebermann-Burchard reaction. Serum was also collected on day 14 or 16 and the triglyceride content was determined by a Fisher-Hycel Triglyceride Test Kit.

Where [1] appears, read: Sprague Dawley rats, oral administration at 20 mg/kg/day.
[2] abbreviates: Table III, 20 mg/kg/day orally, Sprague Dawley rats.

Data on 1 compound can be found in patent US4740504A, “Antihyperlipidemic amine boranes” (United States Borax & Chemical Corp., priority 1987, dated 1988).

`[BH3-][N+](C)(C)CCCCCCCCCCCCCCCCCC` [I, N-n-Octadecyl-N,N-Dimethylamine Borane]: under setting [1], the “lowering of serum triglyceride levels” value turned out to be 35% and the “reduction of serum cholesterol levels” value was 54%. Under setting [2], the “Serum Cholesterol Day 9 (X ± SD)” value is on record as 82 ± 8% of Control, the “Serum Cholesterol Day 14 (X ± SD)” value is recorded as 46 ± 5% of Control, the “Serum Triglyceride Day 9 (X ± SD)” value was 82 ± 7% of Control and the “Serum Triglyceride Day 14 (X ± SD)” value is listed as 65 ± 6% of Control. Besides, the optimum dosage result (in rats) was “about 20 mg./kg”.
